Assay results published in patent publication US12606561B2, “Substituted pyrazolo[1,5-a][1,3,5]triazines as CDK inhibitors” (QURIENT CO., LTD., priority 2018, dated 2026).

Legend:
CDK2/Cyclin A = target: T1, CDK2/Cyclin A (Homo sapiens, UniProt P24941); assay: Enzymatic assay for CDK2 (LANCE Ultra kinase assay, FRET based); assay type: biochemical; details: ATP at Km
T1 construct: purchased Invitrogen PV6290
Method in brief: (§1)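 Compounds tested as 8 doses in 4-fold steps against CDK2/Cyclin A ([…]) or CDK5/p25 ([…]), with ATP at its Km and 68 nM ULight-MBP substrate. After 60 min at 23° C., EDTA plus Eu-labelled anti-phospho-MBP added; TR-FRET (615/665 nm) read after another 60 min.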

OVCAR-3 = OVCAR-3 viability assay (CellTiter-Glo, 72 hours); assay type: cell-based; details: Homo sapiens; OVCAR-3 cells
Method in brief: (§2)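 CellTiter-Glo luminescence measured viability after 72 h of compound exposure (0.0015–10 uM; DMSO below 0.1%) at 37 °C, 5% CO2, run in duplicate. Dosing began 24 h post-seeding in RPMI-1640/10% FBS at 1×10^4 (MV4-11), 5×10^3 (OVCAR-3) or 1×10^3 (A2780) cells/well.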

CDK1/Cyclin B = target: T2, CDK1/Cyclin B (Homo sapiens, UniProt P06493); assay: Enzymatic assay for CDK1 (LANCE Ultra kinase assay, FRET based); assay type: biochemical; details: ATP at Km; read-out: CDK1 enzymatic activity IC50
T2 construct: purchased Invitrogen PR4768C
Method in brief: (§3)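 Purified CDK7/Cyclin H/MNAT1 or CDK1/Cyclin B complexes were tested for inhibition at Km ATP. Phosphorylation of a ULight-labelled peptide was detected by FRET with a Europium anti-phospho antibody (LANCE Ultra).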

CDK5/p25 = target: T3, CDK5/p25 (Homo sapiens, UniProt Q00535); assay: Enzymatic assay for CDK5 (LANCE Ultra kinase assay, FRET based); assay type: biochemical; details: ATP at Km
T3 construct: purchased Invitrogen PR8543B
Method in brief: as §1

A2780 = A2780 viability assay (CellTiter-Glo, 72 hours); assay type: cell-based; details: Homo sapiens; A2780 cells
Method in brief: as §2

CDK7/Cyclin H/MNAT1 = target: T4, CDK7/Cyclin H/MNAT1 (Homo sapiens, UniProt P50613); assay: Enzymatic assay for CDK7 (LANCE Ultra kinase assay, FRET based); assay type: biochemical; details: for IC50: ATP at Km
T4 construct: purchased Invitrogen PR6749B
Method in brief: as §3

T2 sequence (P06493 whole entry): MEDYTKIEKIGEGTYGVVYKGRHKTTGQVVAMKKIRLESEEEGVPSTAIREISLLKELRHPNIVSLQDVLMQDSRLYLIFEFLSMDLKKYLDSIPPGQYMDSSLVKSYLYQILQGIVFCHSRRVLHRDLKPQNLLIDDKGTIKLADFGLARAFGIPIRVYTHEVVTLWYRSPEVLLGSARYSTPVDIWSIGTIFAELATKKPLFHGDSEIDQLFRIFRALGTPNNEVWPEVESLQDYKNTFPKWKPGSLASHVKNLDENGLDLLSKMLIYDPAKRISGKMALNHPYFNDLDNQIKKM
T2 sequence (P14635 whole entry partner): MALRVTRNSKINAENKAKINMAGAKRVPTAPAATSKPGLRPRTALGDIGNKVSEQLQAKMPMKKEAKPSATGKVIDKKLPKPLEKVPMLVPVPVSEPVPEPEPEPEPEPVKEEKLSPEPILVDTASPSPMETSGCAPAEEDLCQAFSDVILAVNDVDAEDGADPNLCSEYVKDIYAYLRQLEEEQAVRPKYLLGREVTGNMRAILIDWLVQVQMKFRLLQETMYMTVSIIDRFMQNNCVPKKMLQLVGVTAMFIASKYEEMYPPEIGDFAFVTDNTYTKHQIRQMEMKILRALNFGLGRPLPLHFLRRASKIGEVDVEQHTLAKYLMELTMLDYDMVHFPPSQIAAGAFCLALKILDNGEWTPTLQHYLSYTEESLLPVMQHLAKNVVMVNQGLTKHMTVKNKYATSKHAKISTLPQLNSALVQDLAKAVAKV
T4 sequence (P50613 whole entry): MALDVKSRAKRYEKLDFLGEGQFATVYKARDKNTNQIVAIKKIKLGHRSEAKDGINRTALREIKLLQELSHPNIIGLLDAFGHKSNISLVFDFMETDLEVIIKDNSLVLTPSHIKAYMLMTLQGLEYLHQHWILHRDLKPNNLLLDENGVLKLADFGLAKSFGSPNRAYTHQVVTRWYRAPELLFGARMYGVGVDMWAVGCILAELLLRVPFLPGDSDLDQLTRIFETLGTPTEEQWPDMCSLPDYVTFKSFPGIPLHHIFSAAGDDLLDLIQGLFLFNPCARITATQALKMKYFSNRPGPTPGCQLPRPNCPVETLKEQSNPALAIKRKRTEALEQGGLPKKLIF
T4 sequence (P51946 whole entry partner): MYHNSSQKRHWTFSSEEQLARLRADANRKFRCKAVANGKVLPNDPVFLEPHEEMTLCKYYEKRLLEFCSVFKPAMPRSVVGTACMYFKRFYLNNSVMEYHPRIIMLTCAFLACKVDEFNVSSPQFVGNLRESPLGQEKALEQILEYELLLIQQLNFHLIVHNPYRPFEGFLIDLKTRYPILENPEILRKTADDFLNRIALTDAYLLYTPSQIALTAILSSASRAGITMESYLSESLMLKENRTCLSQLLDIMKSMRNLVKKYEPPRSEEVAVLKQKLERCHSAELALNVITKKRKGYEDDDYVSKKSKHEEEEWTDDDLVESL
T4 sequence (P51948 whole entry partner): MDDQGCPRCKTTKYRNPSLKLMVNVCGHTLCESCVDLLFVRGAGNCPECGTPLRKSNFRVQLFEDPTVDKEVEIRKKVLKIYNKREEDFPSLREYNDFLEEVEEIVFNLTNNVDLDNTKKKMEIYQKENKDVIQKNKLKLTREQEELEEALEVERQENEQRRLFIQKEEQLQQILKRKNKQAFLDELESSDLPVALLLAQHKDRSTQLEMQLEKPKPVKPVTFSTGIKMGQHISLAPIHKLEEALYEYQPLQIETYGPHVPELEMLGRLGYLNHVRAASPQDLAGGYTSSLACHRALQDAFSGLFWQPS
T3 sequence (Q00535 whole entry): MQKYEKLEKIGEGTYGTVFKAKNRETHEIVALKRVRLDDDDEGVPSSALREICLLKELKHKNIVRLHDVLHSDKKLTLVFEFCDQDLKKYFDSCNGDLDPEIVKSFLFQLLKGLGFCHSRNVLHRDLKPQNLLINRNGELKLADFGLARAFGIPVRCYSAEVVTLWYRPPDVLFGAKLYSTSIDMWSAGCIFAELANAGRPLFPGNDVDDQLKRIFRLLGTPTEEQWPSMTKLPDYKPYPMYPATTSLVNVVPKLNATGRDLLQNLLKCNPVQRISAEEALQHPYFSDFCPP
T3 sequence (Q15078 99-307 partner limits assumed): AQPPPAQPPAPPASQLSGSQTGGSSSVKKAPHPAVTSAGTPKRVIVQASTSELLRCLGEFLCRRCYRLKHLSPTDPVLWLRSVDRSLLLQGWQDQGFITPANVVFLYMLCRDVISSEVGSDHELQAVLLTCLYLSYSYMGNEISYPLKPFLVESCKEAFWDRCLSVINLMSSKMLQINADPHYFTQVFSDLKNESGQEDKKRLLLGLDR

Row | SMILES | IC50 (CDK2/Cyclin A) [nM] | IC50 (OVCAR-3) [nM] | IC50 (CDK1/Cyclin B) [nM] | IC50 (CDK5/p25) [nM] | IC50 (A2780) [nM] | IC50 (CDK7/Cyclin H/MNAT1) [nM] | CDK1/CDK7: Selectivity of CDK7 inhibition over CDK1 inhibition (CDK7/Cyclin H/MNAT1) | CDK2/CDK7: Selectivity of CDK7 inhibition over CDK2 inhibition (CDK7/Cyclin H/MNAT1) | CDK5/CDK7: Selectivity of CDK7 inhibition over CDK5 inhibition (CDK7/Cyclin H/MNAT1)
1 | C=C(F)C(=O)Nc1ccc2c(-c3ccccc3CNc3nc(N4CCC(OC)CC4)nc4c(C(C)C)cnn34)nccc2c1 [Compound 88] | > 1000 | < 1000 | > 1000 | > 1000 | < 1000 | 100 to 1000 | B (B indicates 50 < [fold] ≤ 500) | B (B indicates 50 < [fold] ≤ 500) | B (B indicates 50 < [fold] ≤ 500)
2 | CC(C)c1cnn2c(NCc3ccccc3-c3nccc4cc(NC(=O)/C=C/CN(C)C)ccc34)nc(N[C@@H]3CCCNC3)nc12 [Compound 150] | > 1000 | < 1000 | > 1000 | > 1000 | < 1000 | < 100 | A (A indicates [fold] > 500) | A (A indicates [fold] > 500) | A (A indicates [fold] > 500)
3 | C=CC(=O)Nc1ccc2c(-c3ccccc3CNc3nc(N4CCS(=O)(=O)CC4)nc4c(C(C)C)cnn34)nccc2c1 [Compound 113] | > 1000 | < 1000 | > 1000 | > 1000 | < 1000 | < 100 | B (B indicates 50 < [fold] ≤ 500) | B (B indicates 50 < [fold] ≤ 500) | B (B indicates 50 < [fold] ≤ 500)
4 | C=C(F)C(=O)Nc1ccc2c(-c3ccccc3CNc3nc(NC4CCC(OC)C4)nc4c(C(C)C)cnn34)nccc2c1 (racemic) [Compound 98] | > 1000 | < 1000 | > 1000 | > 1000 | < 1000 | 100 to 1000 | B (B indicates 50 < [fold] ≤ 500) | B (B indicates 50 < [fold] ≤ 500) | B (B indicates 50 < [fold] ≤ 500)
5 | C=C(F)C(=O)Nc1ccc2c(-c3ccccc3CNc3nc(N[C@@H]4CC[C@@H](C)NC4)nc4c(C(C)C)cnn34)nccc2c1 [Compound 163] | > 1000 | < 1000 | > 1000 | > 1000 | < 1000 | < 100 | A (A indicates [fold] > 500) | A (A indicates [fold] > 500) | A (A indicates [fold] > 500)
6 | C=C(F)C(=O)Nc1ccc2c(-c3ccccc3CNc3nc(N[C@H]4CC[C@@H](OC)C4)nc4c(C(C)C)cnn34)nccc2c1 [Compound 96] | > 1000 | < 1000 | > 1000 | > 1000 | < 1000 | 100 to 1000 | B (B indicates 50 < [fold] ≤ 500) | B (B indicates 50 < [fold] ≤ 500) | B (B indicates 50 < [fold] ≤ 500)
7 | C=C(F)C(=O)Nc1ccc2c(-c3ccccc3CNc3cc(NCC4CNCCO4)nc4c(C(C)C)cnn34)nccc2c1 (stereo not drawn) [Compound 94] | > 1000 | < 1000 | > 1000 | > 1000 | < 1000 | < 100 | A (A indicates [fold] > 500) | A (A indicates [fold] > 500) | A (A indicates [fold] > 500)
8 | C=C(F)C(=O)Nc1ccc2c(-c3ccccc3CNc3nc(NCC4CNCCO4)nc4c(C(C)C)cnn34)nccc2c1 (racemic) [Compound 80] | > 1000 | < 1000 | > 1000 | > 1000 | < 1000 | < 100 | A (A indicates [fold] > 500) | A (A indicates [fold] > 500) | A (A indicates [fold] > 500)
9 | CC(C)c1cnn2c(NCc3ccccc3-c3nccc4cc(NC(=O)/C=C/CN(C)C)ccc34)nc(N3CCCC4(CC3)OCCO4)nc12 [Compound 115] | > 1000 | 1000 to 10000 | > 1000 | > 1000 | < 1000 | 100 to 1000 | B (B indicates 50 < [fold] ≤ 500) | B (B indicates 50 < [fold] ≤ 500) | B (B indicates 50 < [fold] ≤ 500)
10 | CC(C)c1cnn2c(NCc3ccccc3-c3nccc4cc(NC(=O)/C=C/CN(C)C)ccc34)nc(NC3CCC(F)(F)CC3)nc12 [Compound 147] | > 1000 | < 1000 | > 1000 | > 1000 | < 1000 | < 100 | A (A indicates [fold] > 500) | A (A indicates [fold] > 500) | A (A indicates [fold] > 500)
11 | C=C(F)C(=O)Nc1ccc2c(-c3ccccc3CNc3nc(N4CCC(OC(C)C)CC4)nc4c(C(C)C)cnn34)nccc2c1 [Compound 89] | > 1000 | 1000 to 10000 | > 1000 | > 1000 | 1000 to 10000 | > 1000 | C (C indicates [fold] ≤ 50) | C (C indicates [fold] ≤ 50) | C (C indicates [fold] ≤ 50)
12 | C=C(F)C(=O)Nc1ccc2c(-c3ccccc3CNc3nc(NC[C@H]4CCN(C)C[C@@H]4O)nc4c(C(C)C)cnn34)nccc2c1 [Compound 164] | > 1000 | < 1000 | > 1000 | > 1000 | < 1000 | < 100 | A (A indicates [fold] > 500) | A (A indicates [fold] > 500) | A (A indicates [fold] > 500)
13 | C=CC(=O)Nc1ccc2c(-c3ccccc3CNc3nc(Oc4cccnc4)nc4c(C(C)C)cnn34)nccc2c1 [Compound 182] | > 1000 | 1000 to 10000 | > 1000 | > 1000 | < 1000 | 100 to 1000 | B (B indicates 50 < [fold] ≤ 500) | B (B indicates 50 < [fold] ≤ 500) | B (B indicates 50 < [fold] ≤ 500)
14 | C=C(F)C(=O)Nc1ccc2c(-c3ccccc3CNc3nc(NC4CCC(C)(C)NC4)nc4c(C(C)C)cnn34)nccc2c1 (stereo not drawn) [Compound 175] | > 1000 | < 1000 | > 1000 | > 1000 | < 1000 | < 100 | A (A indicates [fold] > 500) | A (A indicates [fold] > 500) | A (A indicates [fold] > 500)
